Broadly, the IC50 is the concentration needed to halve the response being measured. Low readings indicate higher potency, high ones lower potency.

Each structure is given as a SMILES string. A value given as a limit tells only on which side of the number the result lay.

Assay [1] concerns L1210. Description: Concentration required to produce 50% reduction in the rate of proliferation of L1210 cells. Format: functional, cell-based. The following applies: Mus musculus.
Assay [2] deals with HEp-2. Description: Concentration required to produce 50% reduction in cloning of H.Ep.No.2 cells by 50%. Format: functional, cell-based. The following applies: Homo sapiens.

As to `Nc1nc(F)nc2c1ncn2C1O[C@H](CO)[C@H](O)[C@H]1N` (stereo partly specified), the concentration for half-maximal inhibition (IC50) in assay [1] is 120 µM; in assay [2] it was 12 µM.
For `[N-]=[N+]=N[C@H]1C(n2cnc3c(N)nc(F)nc32)O[C@H](CO)[C@@H]1O` (stereo partly specified), the figures for the IC50 in assay [1] and in assay [2] were 100 µM and 29 µM, respectively.
The like results for `Nc1nc(Cl)nc2c1ncn2C1O[C@H](CO)[C@H](O)[C@H]1N` (stereo partly specified) were, in that order, more than 120 µM and 80 µM.
As to `Nc1nc(Cl)nc2c1ncn2C1O[C@H](CO)[C@H](O)[C@H]1Br` (stereo partly specified), the IC50 in assay [1] and in assay [2] was more than 110 µM in each case.
Regarding `Nc1nc(Cl)nc2c1ncn2C1O[C@H](CO)[C@H](O)[C@H]1Cl` (stereo partly specified), the IC50 in assay [1] and in assay [2] was more than 120 µM each time.
`Nc1nc(Cl)nc2c1ncn2C1O[C@H](CO)[C@H](O)[C@H]1I` (stereo partly specified): the IC50 in assay [1] and in assay [2] was more than 100 µM throughout.
With `[N-]=[N+]=N[C@H]1C(n2cnc3c(N)nc(Cl)nc32)O[C@H](CO)[C@@H]1O` (stereo partly specified), the IC50 in assay [1] and in assay [2] was more than 120 µM in each case.
As to `Nc1nc(F)nc2c1ncn2C1O[C@H](CO)[C@H](O)[C@H]1Cl` (stereo partly specified), the IC50 turned out to be 60 µM in assay [1] and 100 µM in assay [2].

The record behind these values is ChEMBL document CHEMBL1124036 (J Med Chem, 1988).
